# Assay results from PMC6370856, “Peptidyl prolyl cis/trans isomerase activity on the cell surface correlates with extracellular matrix development” (Communications Biology, 2019).
# Experiments:
# [1] = test system: human dermal fibroblasts isolated from neonatal foreskin (HDFn); assay: PPIase activity on cell surface (PACS), HDFn; assay type: cell-based; conditions: inhibitor final concentration of 10 µM
# Method: To investigate PACS, we need to distinguish between different families of PPIase. […] PACS must also be distinguished from that in culture medium. Adhesive cells such as fibroblasts (human dermal fibroblasts isolated from neonatal foreskin (HDFn)) or mesenchymal stromal cells (MSCs) were washed by simple pipetting and pooling. Washing of suspension cells such as T cells was performed by centrifugation. After the first washing step, no change in PPIase activity in supernatant could be detected through the following washing steps. To minimize the potential damage to cells, one washing step was used in the PACS measurement for suspension cells (Supplementary Fig. 10). […] Adding SLF further reduced the isomerase activity in samples both with and without cells due to the FKBP in the fetal bovine serum (FBS)-containing medium. After the treatment of CsA/SLF, these was no difference in the substrate cis/trans isomerization rate in all the samples. Therefore, neither the cells nor the FBS in the culture medium interferes with the protease-coupled PPIase assay (Fig. 4b).
# The assay was performed in a cold room. If there was no additional description, the assays were performed in CO2-independent medium supplemented with 10% (v/v) h.i. FBS (medium-h.i. FBS) and 2mM L-glutamine. […] FBS to a final concentration of 120 µg mL^−1 (two times substrate stock). α-Chymotrypsin was prepared freshly. Fifteen micrograms of α-chymotrypsin was dissolved in 2 mL medium-h.i. FBS, and the pH was adjusted with 10 µL 1 M NaOH. Five millimole CsA, SLF, and CsA/SLF mixture were prepared in DMSO.
# (§1) The cells (10,000 per well) were cultured in 96-well plates for 24 h. The supernatant was removed by turning the plate upside down. The cells were washed three times for 5 min under gentle shaking using supplemented CO2-independent medium (100 µL/well), and the supernatant was removed as before. The cells were kept in supplemented CO2-independent medium (100 µL/well) for measuring PPIase activity.
# (§2) The medium was removed with a pipette. […] The mixture was kept for 5 min without agitation, followed by 1.5 min of agitation (linear shaking by hand with a speed of around 200 rounds/min). Twenty microliters were taken from the supernatant and measured along with the cell fraction (the remaining 20 µL) for PPIase activity. The activity measurements were triggered by adding 20 µL α-chymotrypsin at time 0 min, followed by 1.5 min of agitation, and the reaction was stopped at time 2 min with 80 µL of 20% acetic acid followed by 15 rounds of up and down pipetting mixing. Four independent experiments were performed on the same day.
# [2] = test system: human mesenchymal stromal cells (MSCs); assay: PPIase activity on cell surface (PACS), MSCs; assay type: cell-based; conditions: MSC, inhibitor final concentration of 10 µM
# Method: (§3) To investigate PACS, we need to distinguish between different families of PPIase. […] PACS must also be distinguished from that in culture medium. Adhesive cells such as fibroblasts (human dermal fibroblasts isolated from neonatal foreskin (HDFn)) or mesenchymal stromal cells (MSCs) were washed by simple pipetting and pooling. Washing of suspension cells such as T cells was performed by centrifugation. […] To minimize the potential damage to cells, one washing step was used in the PACS measurement for suspension cells (Supplementary Fig. 10).
# (§4) The assay was performed in a cold room. If there was no additional description, the assays were performed in CO2-independent medium supplemented with 10% (v/v) h.i. FBS (medium-h.i. FBS) and 2mM L-glutamine. […] FBS to a final concentration of 120 µg mL^−1 (two times substrate stock). α-Chymotrypsin was prepared freshly. Fifteen micrograms of α-chymotrypsin was dissolved in 2 mL medium-h.i. FBS, and the pH was adjusted with 10 µL 1 M NaOH.
# as §1, §2
# [3] = test system: PPIase activity in culture medium (FKBP in the FBS-containing medium); assay: PPIase activity in CO2-independent medium with or without FBS (control); assay type: biochemical, bovine; conditions: for Supernatant PPIase activity k, Exp. 1 / Supernatant PPIase activity k, Exp. 2 / Supernatant PPIase activity k, Exp. 3 / Supernatant PPIase activity k, Mean: no cells
# Method: as §3, §4
# [4] = test system: Jurkat cells; assay: PPIase activity on cell surface (PACS), Jurkat cells; assay type: cell-based; conditions: 1 µL medium with 200 µM inhibitor added to 19 µL
# Method: as §3, §4
# One or more flasks of cells (5 mL per flask, depending on the maximum culture density of each cell line) were harvested by centrifuging at 1000 rpm for 3 min. To remove PPIases from the supernatant originating from the culture, cells were washed one time with 2 mL CO2-independent medium and were resuspended in 1.6 mL of CO2-independent medium with substrate. The cells were centrifuged again, and then 800 µL of the supernatant was taken. The residual volume containing cells was suspended. Nineteen microliters of the cells or supernatant was pipetted to a non-binding 96-well microplate to measure PPIase activity. Four different conditions were performed. […] The plate was kept for 5 min without agitation. The activity measurements were triggered by adding 20 µL of α-chymotrypsin at time 0 min, followed by 1.5 min agitation, and the reaction was stopped after 2 min with 80 µL 20% acetic acid, followed by 15 rounds of up and down pipetting mixing. […]
# For the Jurkat cell number activity measurements, two flasks of cells (10 mL) were harvested, washed, and suspended in 600 µL of CO2-independent medium with substrate. The cells were centrifuged again, and then 300 µL supernatant was taken to measure the activity. The residual volume with cells was suspended and used to measure activity (cell density: 2.4 × 10^7 cells/mL). Four different conditions were performed: 20 µL supernatant or cell with 0 µL substrate, 10 µL supernatant or cell with 10 µL substrate, 5 µL supernatant or cell with 15 µL substrate, and 2.5 µL supernatant or cell with 17.5 µL substrate. […]
compound,measurement,setting,value
CCC(C)(C)C(=O)C(=O)N1CCCC[C@H]1C(=O)O[C@H](CCc1ccc(OC)c(OC)c1)c1cccc(OCC(=O)O)c1 [SLF],"Supernatant PPIase activity k, Exp. 1",[1]; supernatant,0.00186 s⁻¹
same,"Supernatant PPIase activity k, Exp. 2",[1]; supernatant,0.00236 s⁻¹
same,"Supernatant PPIase activity k, Exp. 3",[1]; supernatant,0.00238 s⁻¹
same,"Supernatant PPIase activity k, Mean",[1]; supernatant,0.0022 s⁻¹
same,"cell surface PPIase activity k, Exp. 2",[1]; with cells,0.0027 s⁻¹
same,"cell surface PPIase activity k, Exp. 3",[1]; with cells,0.00286 s⁻¹
same,"cell surface PPIase activity k, Exp. 4",[1]; with cells,0.00333 s⁻¹
same,"cell surface PPIase activity k, Mean",[1]; with cells,0.002963 s⁻¹
same,"Supernatant PPIase activity k, Exp. 1",[2]; supernatant,0.0025 s⁻¹
same,"Supernatant PPIase activity k, Exp. 2",[2]; supernatant,0.00238 s⁻¹
same,"Supernatant PPIase activity k, Exp. 3",[2]; supernatant,0.00221 s⁻¹
same,"Supernatant PPIase activity k, Exp. 4",[2]; supernatant,0.00211 s⁻¹
same,"Supernatant PPIase activity k, Mean",[2]; supernatant,0.0023 s⁻¹
same,"cell surface PPIase activity k, Exp. 2",[2]; with cells,0.0036 s⁻¹
same,"cell surface PPIase activity k, Exp. 3",[2]; with cells,0.00293 s⁻¹
same,"cell surface PPIase activity k, Exp. 4",[2]; with cells,0.00339 s⁻¹
same,"cell surface PPIase activity k, Mean",[2]; with cells,0.003307 s⁻¹
same,"Supernatant PPIase activity k, Exp. 1",[3]; Medium with FBS,0.00201 s⁻¹
same,"Supernatant PPIase activity k, Exp. 2",[3]; Medium with FBS,0.00203 s⁻¹
same,"Supernatant PPIase activity k, Exp. 3",[3]; Medium with FBS,0.00197 s⁻¹
same,"Supernatant PPIase activity k, Mean",[3]; Medium with FBS,0.002003 s⁻¹
same,"Supernatant PPIase activity k, Exp. 1",[3]; Medium without FBS,0.00194 s⁻¹
same,"Supernatant PPIase activity k, Exp. 2",[3]; Medium without FBS,0.00197 s⁻¹
same,"Supernatant PPIase activity k, Exp. 3",[3]; Medium without FBS,0.00199 s⁻¹
same,"Supernatant PPIase activity k, Mean",[3]; Medium without FBS,0.001967 s⁻¹
same,inhibition of residual PPIase activity in the supernatant,"[3]; supernatant / FBS-containing culture medium (Fig. 4b, first right)",completely inhibited
same,"Supernatant PPIase activity k, Exp. 1",[4]; supernatant,0.00208 s⁻¹
same,"Supernatant PPIase activity k, Exp. 2",[4]; supernatant,0.00205 s⁻¹
same,"Supernatant PPIase activity k, Exp. 3",[4]; supernatant,0.00194 s⁻¹
same,"Supernatant PPIase activity k, Exp. 4",[4]; supernatant,0.00211 s⁻¹
same,"Supernatant PPIase activity k, Exp. 5",[4]; supernatant,0.00203 s⁻¹
same,"Supernatant PPIase activity k, Exp. 6",[4]; supernatant,0.00196 s⁻¹
same,"Supernatant PPIase activity k, Mean",[4]; supernatant,0.002028 s⁻¹
same,"cell surface PPIase activity k, Cell (1st replicate column)",[4]; with cells,0.0033 s⁻¹
same,"cell surface PPIase activity k, Cell (2nd replicate column)",[4]; with cells,0.00321 s⁻¹
same,"cell surface PPIase activity k, Cell (3rd replicate column)",[4]; with cells,0.00336 s⁻¹
same,"cell surface PPIase activity k, Cell (4th replicate column)",[4]; with cells,0.00308 s⁻¹
same,"cell surface PPIase activity k, Cell (5th replicate column)",[4]; with cells,0.00293 s⁻¹
same,"cell surface PPIase activity k, Cell (6th replicate column)",[4]; with cells,0.00306 s⁻¹
same,"cell surface PPIase activity k, Mean",[4]; with cells,0.003176 s⁻¹
